Data from the supplement of paper PMC10307832.

What was measured:
Experiment in all cases: relative viability (nuclei count vs DMSO), 5 days (fraction); higher = more cells survive
SK-MES-1 = system: SK-MES-1
Outline: (§1)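 Relative viability is defined as nuclei in treated wells over nuclei in vehicle wells. Duplicate plates were run and medians reported. Lung cancer cell lines in 1536-well plates were dosed by pin tool one day after seeding, with one drug or with a fixed anchor-drug dose plus five library-drug doses (not always all listed) in √10 steps, and nuclei were counted after 5 days.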

RERF-LC-KJ = system: RERF-LC-KJ
Outline: as §1

NCI-H1755 = system: NCI-H1755
Outline: as §1

NCI-H1915 = system: NCI-H1915
Outline: as §1

NCI-H2170 = system: NCI-H2170
Outline: as §1

NCI-H2347 = system: NCI-H2347
Outline: as §1

NCI-H1563 = system: NCI-H1563
Outline: as §1

NCI-H3122 = system: NCI-H3122
Outline: as §1

NCI-H322M = system: NCI-H322M
Outline: as §1

NCI-H1651 = system: NCI-H1651
Outline: as §1

NCI-H650 = system: NCI-H650
Outline: as §1

NCI-H520 = system: NCI-H520
Outline: as §1

Compound: NC(=O)Nc1cc(-c2cccc(F)c2)sc1C(=O)N[C@H]1CCCNC1 [AZD7762] + N=C(N)NC(=N)NCCc1ccccc1 [Phenformin] (partner 250 µM)
- relative viability (SK-MES-1; first compound 0.1 µM): 0.709
- relative viability (SK-MES-1; first compound 0.3162 µM): 0.501
- relative viability (SK-MES-1; first compound 1 µM): 0.158
- relative viability (RERF-LC-KJ; first compound 0.01 µM): 0.481
- relative viability (RERF-LC-KJ; first compound 0.03162 µM): 0.424
- relative viability (RERF-LC-KJ; first compound 0.1 µM): 0.399
- relative viability (RERF-LC-KJ; first compound 0.3162 µM): 0.4
- relative viability (RERF-LC-KJ; first compound 1 µM): 0.382
- relative viability (NCI-H1755; first compound 0.01 µM): 0.636
- relative viability (NCI-H1755; first compound 0.03162 µM): 0.704
- relative viability (NCI-H1755; first compound 0.1 µM): 0.656
- relative viability (NCI-H1755; first compound 0.3162 µM): 0.596
- relative viability (NCI-H1755; first compound 1 µM): 0.423
- relative viability (NCI-H1915; first compound 0.01 µM): 0.373
- relative viability (NCI-H1915; first compound 0.03162 µM): 0.375
- relative viability (NCI-H1915; first compound 0.1 µM): 0.368
- relative viability (NCI-H1915; first compound 0.3162 µM): 0.362
- relative viability (NCI-H1915; first compound 1 µM): 0.349
- relative viability (NCI-H2170; first compound 0.01 µM): 0.411
- relative viability (NCI-H2170; first compound 0.03162 µM): 0.41
- relative viability (NCI-H2170; first compound 0.1 µM): 0.471
- relative viability (NCI-H2170; first compound 0.3162 µM): 0.384
- relative viability (NCI-H2170; first compound 1 µM): 0.423
- relative viability (NCI-H2347; first compound 0.01 µM): 0.426
- relative viability (NCI-H2347; first compound 0.03162 µM): 0.365
- relative viability (NCI-H2347; first compound 0.1 µM): 0.51
- relative viability (NCI-H2347; first compound 0.3162 µM): 0.483
- relative viability (NCI-H2347; first compound 1 µM): 0.371
- relative viability (NCI-H1563; first compound 0.01 µM): 0.645
- relative viability (NCI-H1563; first compound 0.03162 µM): 0.691
- relative viability (NCI-H1563; first compound 0.1 µM): 0.687
- relative viability (NCI-H1563; first compound 0.3162 µM): 0.612
- relative viability (NCI-H1563; first compound 1 µM): 0.694
- relative viability (NCI-H3122; first compound 0.01 µM): 0.389
- relative viability (NCI-H3122; first compound 0.03162 µM): 0.412
- relative viability (NCI-H3122; first compound 0.1 µM): 0.416
- relative viability (NCI-H3122; first compound 0.3162 µM): 0.341
- relative viability (NCI-H3122; first compound 1 µM): 0.317
- relative viability (NCI-H322M; first compound 0.01 µM): 0.704
- relative viability (NCI-H322M; first compound 0.03162 µM): 0.85
- relative viability (NCI-H322M; first compound 0.1 µM): 0.747
- relative viability (NCI-H322M; first compound 0.3162 µM): 0.36
- relative viability (NCI-H322M; first compound 1 µM): 0.284
- relative viability (NCI-H1651; first compound 0.01 µM): 0.36
- relative viability (NCI-H1651; first compound 0.03162 µM): 0.434
- relative viability (NCI-H1651; first compound 0.1 µM): 0.319
- relative viability (NCI-H1651; first compound 0.3162 µM): 0.268
- relative viability (NCI-H1651; first compound 1 µM): 0.17
- relative viability (NCI-H650; first compound 0.01 µM): 0.453
- relative viability (NCI-H650; first compound 0.03162 µM): 0.46
- relative viability (NCI-H650; first compound 0.1 µM): 0.49
- relative viability (NCI-H650; first compound 0.3162 µM): 0.446
- relative viability (NCI-H650; first compound 1 µM): 0.538
- relative viability (NCI-H520; first compound 0.01 µM): 0.623
- relative viability (NCI-H520; first compound 0.03162 µM): 0.758
- relative viability (NCI-H520; first compound 0.1 µM): 0.585
- relative viability (NCI-H520; first compound 0.3162 µM): 0.306
- relative viability (NCI-H520; first compound 1 µM): 0.283
